Laboratory results reported in patent publication US20040086983A1, “Method for producing a heterocyclic compound and an aromatic carboxylic acid having one or more hydroxyl groups, and modified aromatic ring dioxygenase” (priority 2000, published 2004).

tested on: biphenyl dioxygenase derived from the strain Pseudomonas pseudoalcaligenes KF707 (bphA1A2A3A4) expressed in E. coli (pKF6622); assay: not given; assay type: cell-based; details: 5 mg substrate in 70 ml M9 medium, 28° C., 2 to 3 days, ratio of HPLC peak areas (max plot 230 to 350 nm)
Procedure: (§1) To start the conversion reaction, first, the necessary E. coli transformant cells were removed from the abovementioned glycerol stock culture with a platinum loop, suspended in 4 ml of LB medium containing 150 μg/ml ampicillin (Ap) and cultured at 28° C. for 7 to 8 hours at 175 rpm (pre-culture). […] The cells were recovered by centrifugation at 8,000 rpm for 5 minutes and suspended in 70 ml of M9 medium (supplemented with 150 μg/ml Ap, 0.4% (w/v) glucose, and 10 μg/ml thiamine) containing isopropyl-1-thio-β-D-galactopyranoside (IPTG) at a final concentration of 1 mM and 5 mg of a substrate, and the cultivation was further carried out at 28° C. for 2 to 3 days at 175 rpm. The substrate used was prepared by dissolving it in a solvent, such as ethanol, generally at a concentration of 10 mg/ml and added in an amount of 0.5 ml. On day 2 or 3 of the cultivation, the lipid was extracted by adding 70 ml of methanol and stirring for 30 minutes, and the supernatant was collected by centrifugation at 8,000 rpm for 5 minutes to obtain a crude lipid extract.
(§2) The HPLC analysis was carried out using a Puresil C18 column (4.6 mm×250 mm, Waters) at a rate of 1 ml/min. […] Conditions for development with solvents were as follows:
(§3) Solution A: water/methanol (50/50)
(§4) Solution B: methanol/2-propanol (60/40)
(§5) 0 to 5 min (solution A), 5 to 20 min (solution A)→(solution B) convex gradient (No. 3, Waters), 20 min−(solution B)
(§6) The conversion rate was expressed by a ratio of peak areas monitored at the wave length where the maximum absorbance was observed within the range from 230 to 350 nm (max plot).

**Q.** For `c1ccc(-c2cc3ccccc3[nH]2)cc1` [2-phenylindole], which conversion rate is on record?
**A.** The conversion rate was 23%.

**Q.** `c1ccc(Cc2cnsc2)cc1` [4-benzylisothiazole] was tested. Which conversion rate did it give?
**A.** Its conversion rate is 27%.

**Q.** Which conversion rate does the source give for `Cc1ccn(-c2ccccc2)n1` [3-methyl-1-phenylpyrazole] here?
**A.** Its conversion rate is 63%.

**Q.** With `c1ccc(Cc2ccccn2)cc1` [2-benzylpyridine] as the molecule, how does the conversion rate read?
**A.** The conversion rate was 11%.

**Q.** For `O=C1CC(c2ccccc2)c2ccccc21` (centres unmarked) [3-phenyl-1-indanone], which conversion rate is on record?
**A.** The conversion rate was 93%.

**Q.** For `CCCCCCc1ccsc1` [3-n-hexylthiophene], which conversion rate is on record?
**A.** The conversion rate was 99%.

**Q.** How did the conversion rate turn out when `Cc1ccc(-c2ccccn2)cc1` [2-(p-tolyl)pyridine] was run?
**A.** Its conversion rate is 61%.

**Q.** `c1ccc(Cn2ccnc2)cc1` [1-benzylimidazole] was tested. Which conversion rate did it give?
**A.** Its conversion rate is 43%.

**Q.** For `c1ccc(-c2nc3ccccc3o2)cc1` [2-phenylbenzoxazole], which conversion rate is on record?
**A.** The conversion rate was 45%.

**Q.** With `CCCCc1cc2ccccc2o1` [2-n-butylbenzofuran] as the molecule, how does the conversion rate read?
**A.** Its conversion rate is 90%.

**Q.** How did the conversion rate turn out when `c1ccc(-c2ccc3ccccc3n2)cc1` [2-phenylquinoline] was run?
**A.** Its conversion rate is 53%.

**Q.** How did the conversion rate turn out when `Oc1ccccc1-c1nc2ccccc2o1` [2-(2-hydroxyphenyl)-benzoxazole] was run?
**A.** Its conversion rate is 25%.

**Q.** With `c1ccc(-n2cccc2)cc1` [1-phenylpyrrole] as the molecule, how does the conversion rate read?
**A.** The conversion rate was 100%.

**Q.** With `c1ccc(-c2nc3ccccc3s2)cc1` [2-phenylbenzothiazole] as the molecule, how does the conversion rate read?
**A.** Its conversion rate is 36%.

same assay, conditions: 5 mg substrate in 70 ml M9 medium, HPLC analysis

**Q.** With `Cc1cccnc1-c1ccccc1` [3-methyl-2-phenylpyridine] as the molecule, how does the conversion products observed read?
**A.** The conversion products observed was “hardly observed”.

**Q.** How did the conversion products observed turn out when `c1ccc(-n2cccn2)cc1` [1-phenylpyrazole] was run?
**A.** The conversion products observed was “hardly observed”.

**Q.** For `c1ccc(-c2ccncn2)cc1` [4-phenylpyrimidine], which conversion products observed is on record?
**A.** The conversion products observed was “hardly observed”.

tested on: modified biphenyl dioxygenase (modified bphA1::bphA2A3A4) expressed in E. coli (pKF2072); assay: not given; assay type: cell-based, Pseudomonas pseudoalcaligenes KF707; details: 5 mg substrate in 70 ml M9 medium, 28° C., 2 to 3 days, ratio of HPLC peak areas (max plot 230 to 350 nm)
Procedure: as §1, §2, §3, §4, §5, §6

**Q.** `c1ccc(-c2cc3ccccc3[nH]2)cc1` [2-phenylindole] was tested. Which conversion rate did it give?
**A.** Its conversion rate is 71%.

**Q.** For `c1ccc(Cc2cnsc2)cc1` [4-benzylisothiazole], which conversion rate is on record?
**A.** Its conversion rate is 65%.

**Q.** With `Cc1cccnc1-c1ccccc1` [3-methyl-2-phenylpyridine] as the molecule, how does the conversion rate read?
**A.** The conversion rate was 16%.

**Q.** Which conversion rate does the source give for `Cc1ccn(-c2ccccc2)n1` [3-methyl-1-phenylpyrazole] here?
**A.** Its conversion rate is 100%.

**Q.** With `c1ccc(Cc2ccccn2)cc1` [2-benzylpyridine] as the molecule, how does the conversion rate read?
**A.** Its conversion rate is 57%.

**Q.** For `O=C1CC(c2ccccc2)c2ccccc21` (centres unmarked) [3-phenyl-1-indanone], which conversion rate is on record?
**A.** Its conversion rate is 97%.

**Q.** With `CCCCCCc1ccsc1` [3-n-hexylthiophene] as the molecule, how does the conversion rate read?
**A.** Its conversion rate is 100%.

**Q.** With `Cc1ccc(-c2ccccn2)cc1` [2-(p-tolyl)pyridine] as the molecule, how does the conversion rate read?
**A.** Its conversion rate is 96%.

**Q.** With `c1ccc(Cn2ccnc2)cc1` [1-benzylimidazole] as the molecule, how does the conversion rate read?
**A.** Its conversion rate is 97%.

**Q.** With `c1ccc(-c2nc3ccccc3o2)cc1` [2-phenylbenzoxazole] as the molecule, how does the conversion rate read?
**A.** The conversion rate was 100%.

**Q.** For `CCCCc1cc2ccccc2o1` [2-n-butylbenzofuran], which conversion rate is on record?
**A.** The conversion rate was 100%.

**Q.** `c1ccc(-c2ccc3ccccc3n2)cc1` [2-phenylquinoline] was tested. Which conversion rate did it give?
**A.** Its conversion rate is 89%.

**Q.** Which conversion rate does the source give for `Oc1ccccc1-c1nc2ccccc2o1` [2-(2-hydroxyphenyl)-benzoxazole] here?
**A.** The conversion rate was 39%.

**Q.** Which conversion rate does the source give for `c1ccc(-n2cccc2)cc1` [1-phenylpyrrole] here?
**A.** The conversion rate was 100%.

**Q.** `c1ccc(-n2cccn2)cc1` [1-phenylpyrazole] was tested. Which conversion rate did it give?
**A.** Its conversion rate is 47%.

**Q.** How did the conversion rate turn out when `c1ccc(-c2ccncn2)cc1` [4-phenylpyrimidine] was run?
**A.** The conversion rate was 100%.

**Q.** How did the conversion rate turn out when `c1ccc(-c2nc3ccccc3s2)cc1` [2-phenylbenzothiazole] was run?
**A.** The conversion rate was 81%.

tested on: modified bphA1::bphA2A3A4 expressed in Streptomyces lividans TK21 (pIJ-2072); assay: Conversion experiment using recombinant actinomycetes (pIJ-2072), HPLC analysis; assay type: cell-based, Pseudomonas pseudoalcaligenes KF707; details: substrate 0.1 mg/ml, cells 10 mg/ml, 30° C., 2 days
Procedure: Plasmid pKF2072 was double-digested with SacI/SmaI, after which a 4.06 kb fragment containing the modified bphA1::bphA2A3A4 was excised. Then, vector pIJ6021 for actinomycetes (see E. Takano, J. White, C. J. Thompson, M. J. Bibb, Gene, 166, 133-137, 1995) was double-digested with NdeI-HindIII, and then the abovementioned 4.06 kb SacI-HindIII fragment and a synthesized DNA 5′-[…]-3′ were added. After annealing, treatment with a Klenow fragment enzyme was followed by a ligation reaction. E. coli JM109 strain was transformed, after which the objective plasmid pIJ-2072 was obtained. The pIJ-2072 was designed so that the modified bphA1 gene is located immediately downstream of a powerful actinomycetes promoter PtipA and its ribosome binding site, being followed by the bphA2A3A4 gene. Namely, the 5′ binding site is […]. The underlined segment is the ribosome binding site, and the modified bphA1 gene starts at ATG from nucleotide 18 to nucleotide 20. This plasmid pIJ-2072 was used to transform actinomycetes Streptomyces lividans TK21 (see D. A. Hopwood, M. J. Bibb, K. F. Chater et al., Genetic Manipulation of Streptomyces: A laboratory Manual, The John Innes Institute, Norwich, 1985). […]

**Q.** For `c1ccc(-c2ccc3ccccc3n2)cc1` [2-phenylquinoline], which “converted into its diol derivative, yield” value is on record?
**A.** Its value is ~100%.
